Data published in patent US4166765A, “Detecting Neisseria bacteria” (Corning Glass Works, priority 1977, dated 1979).

System: 1,2-propanediol dehydrogenase
Experiment: Substrate specificity of the enzyme on analogs of 1,2-propanediol using NAD
Assay type: biochemical, Neisseria
Parameters: concentration or dose not given beside the values
Conditions: substrate with NAD; relative to 1,2-propanediol = 100
Description: The following reagents were added to 12×75 mm plastic tubes:
To each test tube was added 100 μl of a bacterial lysate. Incubations varied in time from being read immediately and continuously for 4 minutes, to allowing the assay tubes to incubate one-half hour before reading. All procedures and incubations were carried out at room temperature.
The samples were read at 340 nm (ultraviolet) on a Perkin-Elmer double beam spectrophotometer. A Honeywell Electronik 194 recorder was used to record absorbency. The tests that were read immediately and continuously for 4 minutes were allowed to record for the same time period. Those tests read after 30 minutes were not read continuously, but had their absorbencies recorded after the incubation period [Activity (A) was determined in the 4 minute monitored assay and in the 30 minute assay].
In order to examine the specificity of the substrate with respect to the enzyme, it was assayed on several analogs of 1,2-propanediol using NAD.

| Compound | % Reactivity [%] |
| --- | --- |
| OCCO [1,2 ethanediol] | 0 |
| OCC(O)CCl (stereo not shown) [1 chloro 2,3-propanediol] | 0 |
| OCCCO [1,3 propanediol] | 0 |
| CCCO [1-propanol] | 0 |
| CCC(O)CO (stereo not shown) [1,2 butanediol] | 10 |
| CCO [Ethanol] | 0 |
| CC(C)O [2-propanol] | 0 |
| CC(O)CO (stereo not shown) [1,2-propanediol] | 100 |
| O=C(CO)CO [Dihydroxyacetone] | 21 |
| OCC(O)CO [Glycerol] | 1 |
